Reference: patent publication US6630569B1, “Ectoparasiticide agents” (priority 1998, dated 2003)

What was measured:
[1] = tested on: Lucilia cuprina larvae (1st-3rd stage); assay: Blowfly larvae test / development-inhibitory action; type: in vivo; settings: 100% = no flies hatched
Experimental: Blowfly Larvae Test/Development-inhibitory Action
Test animals: Lucilia cuprina larvae (1st-3rd stage)
(§1) Solvent: Dimethyl sulphoxide
20 mg of active compound are dissolved in one ml of dimethyl sulphoxide. To prepare a suitable formulation, the solution of active compound is diluted with water to the particular desired concentration.
About 20 Lucilia cuprina larvae are introduced into a test tube which contains about 1 cm^3 of horse meat and 0.5 ml of the preparation of active compound to be tested. After 24 hours and 48 hours, the effectiveness of the preparation of active compound is determined. The test tubes are transferred into beakers whose bottom is covered with sand. After a further two days, the test tubes are removed and the pupae are counted.
The effect of the preparation of active compound is assessed by the number of flies which have hatched after 1.5 times the development period of an untreated control. 100% means that no flies have hatched; 0% means that all flies have hatched normally.

[2] = tested on: Adults of Ctenocephalides felis; assay: Test with cat fleas / oral uptake; type: in vivo; settings: dosage 100 μg; mortality after 24 h, blood feeding
Experimental: Test with Cat Fleas/oral Uptake
Test animals: Adults of Ctenocephalides felis
Solvent: Dimethyl sulphoxide (DMSO)
7.5 μl of this formulation are added to 3.5 ml of citrated cattle blood and stirred.
20 unfed adult fleas (Ctenocephalides felis, strain “Georgi”) are placed into a chamber (Ø 2.5 cm) whose top and bottom are closed with gauze. A metal cylinder whose underside is covered with parafilm is placed onto the chamber. […] Whereas the blood is warmed to 37° C., the temperature in the area of the flea chambers is adjusted to 25° C. Controls are mixed with the same volume of DMSO, without addition of a compound. The determinations are carried out in triplicate.
After 24 h, the mortality in % (=dead fleas) is determined, using imidacloprid as standard.

[3] = tested on: Adult females of Boophilus microplus (parkhurst strain, SP-resistant); assay: Test with resistant monoxenous cattle ticks / SP-resistant Parkhurst strain (injection into abdomen); type: in vivo; settings: dosage 20 μg injected; 100% = no fertile eggs
Experimental: Test with Resistant Monoxenous Cattle Ticks/SP-resistant Parkhurst Strain
Test animals: Adult females of Boophilus microplus (parkhurst strain, SP-resistant) which have sucked themselves full
as §1
20 mg of active compound are dissolved in one ml of dimethyl sulphoxide, more dilute concentrations are prepared by dilution in the same solvent.
The test is carried out in five replications. 1 μl of the solutions is injected into the abdomen, and the animals are transferred into dishes and kept in a climatized room. After seven days, the activity is checked by examination for the position of fertile eggs. Eggs whose fertility is not visible from the outside are stored in glass tubes in a controlled-environment cabinet until the larvae have hatched after about 24 days. An activity of 100% means that the tick has not produced any fertile eggs.

[4] = tested on: All stages of Boophilus microplus, pyrethroid-resistant strain; assay: In vivo test on ticks / mini-dip on cattle; settings: dosage 1000 μg, 100% = no ticks with fertile eggs
Experimental: In vivo Test on Ticks/mini-dip on Cattle
Test object: All stages of Boophilus microplus (larvae, metalarvae, nymphs, metanymphs and adults) pyrethroid-resistant strain.
Solution: Active compound 30% strength in methyl glycol and emulsifier NP 10 in a ratio of 1:1.
For the treatment of the cattle, concentrations of 1000, 300, 100, 30, 10 and 1 ppm are used, in a volume of 200 ml. The cattle hide to be treated is wetted with the solution of active compound for 1 min.
14×, in intervals of two days, cattle is infected with about 3000 14- to 28-day-old larvae of B. microplus which have not been fed. On day 23 p.i., defined areas on the surface of the cattle skin are wetted with the abovementioned preparation of active compound. From day 24 to 45 p.i., the female adult ticks which develop are counted, and the fertility of the eggs laid by these ticks is checked and used to determine the activity of the preparation of active compound.

[5] = tested on: silkworms; settings: in vivo; cited from earlier work

Row | SMILES | Activity (in %) ([1]; dosage 100 ppm) [%] | Activity (in %) ([1]; dosage 1000 ppm) [%] | Activity (in %) [2] [%] | Activity (in %) [3] [%] | Activity (in %) [4] [%] | insecticidal activity against silkworms [5]
1 | CC(C)C[C@@H]1C(=O)O[C@@H](Cc2ccc(N3CCOCC3)cc2)C(=O)N(C)[C@H](CC(C)C)C(=O)O[C@@H](C)C(=S)N(C)[C@H](CC(C)C)C(=O)O[C@@H](Cc2ccc(N3CCOCC3)cc2)C(=O)N(C)[C@H](CC(C)C)C(=O)O[C@@H](C)C(=O)N1C [compound 9, Cyclo-(N-methyl-L-leucinyl-D-thiolactyl-N-methyl-L-leucinyl-D-4-morpholino-phenyllactyl-N-methyl-L-leucinyl-D-lactyl-N-methyl-L-leucinyl-D-4-N-morpholinophenyllactyl-)] | 100 | 100 | 100 |  |  | 
2 | CC(C)C[C@H]1C(=O)O[C@H](Cc2ccccc2)C(=O)N(C)[C@@H](CC(C)C)C(=O)O[C@H](C)C(=O)N(C)[C@@H](CC(C)C)C(=O)O[C@H](Cc2ccccc2)C(=O)N(C)[C@@H](CC(C)C)C(=O)O[C@H](C)C(=O)N1C [PF 1022A, cyclo(-N-methyl-L-leucinyl-D-lactyl-N-methyl-L-leucinyl-D-phenyllactyl-N-methyl-L-leucinyl-D-lactyl-N-methyl-L-leucinyl-D-phenyllactyl-)] |  | 0 | 0 | 0 | 0 | insecticidal activity
3 | CC(C)C[C@H]1C(=O)O[C@H](C(C)C)C(=O)N(C)[C@@H](CC(C)C)C(=O)O[C@H](C(C)C)C(=O)N(C)[C@@H](CC(C)C)C(=O)O[C@H](C(C)C)C(=O)N(C)[C@@H](CC(C)C)C(=O)O[C@H](C(C)C)C(=O)N1C [bassianolide] |  |  |  |  |  | insecticidal activity
